From the NIST ThermoML archive (doi:10.1016/j.jct.2011.10.014)

Experiment: molar heat capacity at constant pressure
Details: 101.33 kPa, Crystal, Vacuum adiabatic calorimetry

O=C([O-])[O-].[Pb+2] [lead(II) carbonate]
Details | molar heat capacity at constant pressure [J/K/mol]
4.385 K | 0.052
4.419 K | 0.0555
4.738 K | 0.06322
4.754 K | 0.06377
5 K | 0.0763
5.09 K | 0.08024
5.104 K | 0.08019
5.342 K | 0.09726
5.363 K | 0.09954
5.585 K | 0.1145
5.612 K | 0.1163
5.83 K | 0.1316
5.868 K | 0.1342
6.078 K | 0.1519
6.126 K | 0.1554
6.413 K | 0.1893
6.471 K | 0.1928
6.838 K | 0.2414
6.899 K | 0.256
7.267 K | 0.3073
7.34 K | 0.322
7.699 K | 0.3863
7.78 K | 0.4013
8.134 K | 0.4809
8.222 K | 0.5005
8.575 K | 0.5882
8.668 K | 0.606
9.015 K | 0.7106
9.108 K | 0.7478
9.458 K | 0.85
9.558 K | 0.8902
9.903 K | 1.01
10 K | 1.048
10.01 K | 1.055
10.57 K | 1.286
10.68 K | 1.33
11.46 K | 1.695
11.57 K | 1.751
12.36 K | 2.155
12.47 K | 2.216
13.27 K | 2.654
13.38 K | 2.746
14.19 K | 3.244
14.31 K | 3.33
15 K | 3.776
15.13 K | 3.866
15.25 K | 3.962
16.07 K | 4.511
16.2 K | 4.595
17.03 K | 5.162
17.16 K | 5.276
17.99 K | 5.902
18.12 K | 6.01
18.95 K | 6.635
19.09 K | 6.747
19.93 K | 7.37
20 K | 7.42
20.06 K | 7.466
21.41 K | 8.521
21.54 K | 8.639
23.39 K | 10.08
23.53 K | 10.19
25 K | 11.38
25.4 K | 11.68
27.41 K | 13.32
29.43 K | 14.96
30 K | 15.38
31.45 K | 16.55
33.46 K | 18.13
35 K | 19.37
35.48 K | 19.73
36.7 K | 20.7
37.49 K | 21.32
38.5 K | 22.12
40 K | 23.28
40.51 K | 23.65
42.52 K | 25.25
44.53 K | 26.66
45 K | 27.01
46.54 K | 28.07
48.55 K | 29.49
50 K | 30.59
50.55 K | 30.94
52.55 K | 32.41
54.56 K | 33.8
55 K | 33.98
56.56 K | 35.05
58.57 K | 36.13
60 K | 37.15
60.52 K | 37.48
62.4 K | 38.61
64.2 K | 39.65
65 K | 40.1
65.95 K | 40.66
67.63 K | 41.57
69.27 K | 42.35
70 K | 42.8
71.59 K | 43.59
74.62 K | 45.09
75 K | 45.29
77.67 K | 46.51
79.9 K | 47.55
80 K | 47.58
80.72 K | 47.85
83.04 K | 48.9
85 K | 49.68
86.1 K | 50.14
89.18 K | 51.33
90 K | 51.61
92.25 K | 52.45
95 K | 53.38
95.34 K | 53.5
98.43 K | 54.49
100 K | 55
101.53 K | 55.5
104.63 K | 56.35
107.75 K | 57.22
110 K | 57.87
110.87 K | 58.11
114 K | 58.89
117.14 K | 59.63
120 K | 60.33
120.28 K | 60.41
123.43 K | 61.11
126.59 K | 61.8
129.77 K | 62.5
130 K | 62.53
132.94 K | 63.15
136.13 K | 63.79
139.31 K | 64.43
140 K | 64.55
142.51 K | 65.03
145.71 K | 65.61
148.92 K | 66.19
150 K | 66.42
152.13 K | 66.84
155.35 K | 67.35
158.57 K | 67.88
160 K | 68.14
161.81 K | 68.4
165.05 K | 68.98
168.31 K | 69.49
170 K | 69.74
171.58 K | 70.05
174.85 K | 70.51
178.14 K | 70.92
180 K | 71.28
181.44 K | 71.38
184.74 K | 71.87
188.04 K | 72.41
190 K | 72.72
191.34 K | 72.91
194.61 K | 73.4
197.88 K | 73.88
200 K | 74.07
201.13 K | 74.3
204.38 K | 74.74
207.61 K | 75.11
210 K | 75.37
210.84 K | 75.52
214.06 K | 75.82
217.25 K | 76.33
220 K | 76.66
220.45 K | 76.69
223.63 K | 77.07
226.8 K | 77.37
